Columns and labels:
Format in all cases: binding
[1] = biological target: T1, monomeric sarcosine oxidase (MSOX) (Bacillus sp. B-0618, UniProt P40859, K266M); assay: absorption spectral titration of charge transfer band
T1 sequence (P40859 2-390 K266M): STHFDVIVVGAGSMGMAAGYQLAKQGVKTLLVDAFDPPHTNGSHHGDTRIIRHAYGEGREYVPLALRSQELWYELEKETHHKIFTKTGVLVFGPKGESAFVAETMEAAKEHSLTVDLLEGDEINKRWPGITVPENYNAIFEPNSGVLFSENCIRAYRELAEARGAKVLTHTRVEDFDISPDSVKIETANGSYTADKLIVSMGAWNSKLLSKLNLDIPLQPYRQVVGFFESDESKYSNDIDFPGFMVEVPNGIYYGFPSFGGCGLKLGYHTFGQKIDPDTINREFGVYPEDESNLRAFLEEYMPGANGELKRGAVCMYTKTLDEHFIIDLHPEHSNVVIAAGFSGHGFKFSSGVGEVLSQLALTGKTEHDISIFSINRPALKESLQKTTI

[2] = biological target: T2, monomeric sarcosine oxidase (MSOX) (Bacillus sp. B-0618, UniProt P40859, K266R); assay: as above
T2 sequence (P40859 2-390 K266R): T1 sequence (P40859 2-390 K266M)

[3] = biological target: T2, monomeric sarcosine oxidase (MSOX); assay: stopped-flow diode array, initial charge transfer absorbance
[4] = biological target: T1, monomeric sarcosine oxidase (MSOX); assay: as above

Row | SMILES | Kd [1] | Kd [2] | Kd [3] | Kd [4]
1 | CSCC(=O)O [methylthioacetate] | 13.3 ± 0.3 mM | 6.9 ± 0.1 mM | – | –
2 | CNCC(=O)O [sarcosine, N-methylglycine] | – | – | 34 ± 1 mM | 58 ± 10 mM
